Patent US12209086B2, “FGFR3 inhibitor compounds” (ELI LILLY AND COMPANY, priority 2021, dated 2025)

The compounds below were run against T1, FGFR3 protein (Homo sapiens, UniProt P22607) (assay: FGFR3 enzyme assay (KinEASE-TK HTRF kinase assay)). Details: 0.25 nM enzyme, ATP at Km, 15 min pre-incubation on ice, 30 min at 30° C.
T1 construct: purchased Reaction Biology 1068
Type: biochemical
Method: FGFR3 and FGFR1 Enzyme Assay
Enzyme activity was monitored using the KinEASE™-TK Assay Kit (Cisflio, Cat. No. 62TK0PEC) according to the manufacturer's instructions. All assays were performed at the respective KmATP for each kinase in KinEASE™ Kinase Buffer.
Titration of compounds were performed in a half-log manner in 100% dimethyl sulfoxide (DMSO) starting at 1 uM. Prior to the initiation of the reaction by adenosine triphosphate (ATP), FGFR1 protein and compounds were pre-incubated for 15 minutes at room temperature, and FGFR3 protein and compounds were pre-incubated on ice for 15 minutes. Reactions proceeded for 30 min at 30° C. Plates were quenched by the addition of the Anti-TK cryptate antibody/Streptavidin-XL665 mixture.
Ratios were converted to a percent of control (POC) using a ratiometric emission factor. One hundred POC was determined using no test compound, and 0 POC was determined in the presence of 1 uM of an appropriate control inhibitor.

T1 sequence (P22607 23-806): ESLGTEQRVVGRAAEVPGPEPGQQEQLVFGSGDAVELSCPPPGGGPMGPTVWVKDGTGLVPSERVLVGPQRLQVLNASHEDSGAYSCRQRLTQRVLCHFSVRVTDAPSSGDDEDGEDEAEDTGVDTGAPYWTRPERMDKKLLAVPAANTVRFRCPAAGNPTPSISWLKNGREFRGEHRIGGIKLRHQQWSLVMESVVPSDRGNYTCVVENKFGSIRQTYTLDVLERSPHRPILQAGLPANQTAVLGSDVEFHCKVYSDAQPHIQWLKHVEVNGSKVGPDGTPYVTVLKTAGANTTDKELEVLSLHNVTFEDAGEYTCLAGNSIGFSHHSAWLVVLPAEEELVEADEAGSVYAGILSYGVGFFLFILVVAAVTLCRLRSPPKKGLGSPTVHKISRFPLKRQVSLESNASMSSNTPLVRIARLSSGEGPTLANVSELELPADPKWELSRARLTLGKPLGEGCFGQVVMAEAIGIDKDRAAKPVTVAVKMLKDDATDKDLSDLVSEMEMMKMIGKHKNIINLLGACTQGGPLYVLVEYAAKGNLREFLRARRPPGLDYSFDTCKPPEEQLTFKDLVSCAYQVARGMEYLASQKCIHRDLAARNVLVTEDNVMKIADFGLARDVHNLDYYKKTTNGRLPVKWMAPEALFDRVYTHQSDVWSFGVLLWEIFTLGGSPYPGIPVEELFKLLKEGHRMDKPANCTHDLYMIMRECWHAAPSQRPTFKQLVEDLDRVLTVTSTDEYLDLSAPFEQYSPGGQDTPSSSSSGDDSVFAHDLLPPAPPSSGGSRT

SMILES	IC50
Cc1c(-c2cc(OCC(C)(O)c3ccc(F)cn3)c3c(Cl)cnn3c2)nnn1C1CCN(C#N)CC1 (single isomer, unassigned) [Example 156, 4-[4-[3-Chloro-4-[2-(5-fluoro-2-pyridyl)-2-hydroxy-propoxy]pyrazolo[1,5-a]pyridin-6-yl]-5-methyl-triazol-1-yl]piperidine-1-carbonitrile]	< 50 nM
Cc1c(-c2cc(OC(C)c3cc(C(F)(F)F)cnc3N3CCOCC3)c3c(C#N)cnn3c2)nnn1C1CCN(C#N)CC1 (stereo not drawn) [Example 13, 6-[1-(1-Cyano-4-piperidyl)-5-methyl-triazol-4-yl]-4-[1-[2-morpholino-5-(trifluoromethyl)-3-pyridyl]ethoxy]pyrazolo [1,5-a]pyridine-3-carbonitrile]	< 100 nM
Cc1c(-c2cc(OC(CO)c3ccc(F)cn3)n3c(Cl)cnc3c2)nnn1C1CCN(C#N)CC1 (single isomer, unassigned; isomer 2) [Example 47, 4-[4-[3-Chloro-5-[1-(5-fluoro-2-pyridyl)-2-hydroxy-ethoxy]imidazo[1,2-a]pyidine-7-yl]-5-methyl-triazol-1-yl]piperidine-1-carbonitrile, Isomer 2]	< 50 nM
Cc1c(-c2cc(OC(c3ccc(F)cn3)C(F)(F)F)n3c(C#N)cnc3c2)nnn1C1CCN(C#N)CC1 (single isomer, unassigned; isomer 1) [Example 48, 7-[1-(1-Cyano-4-piperidyl)-5-methyl-triazol-4-yl]-5-[2,2,2-trifluoro-1-(5-fluoro-2-pyridyl)ethoxy]imidazo[1,2-a]pyridine-3-carbonitrile, Isomer 1]	< 50 nM
COCC(Oc1cc(-c2nnn(C3CCN(C#N)CC3)c2C)cn2ncc(C#N)c12)c1cncc(C(F)(F)F)c1 (single isomer, unassigned; isomer 1) [Example 61, 6-[1-(1-cyano-4-piperidyl)-5-methyl-triazol-4-yl]-4-[2-methoxy-1-[5-(trifluoromethyl)-3-pyridyl]ethoxy]pyrazolo [1,5-a]pyridine-3-carbonitrile, Isomer 1]	< 50 nM
Cc1c(-c2cc(OC(C)c3cccc4cnsc34)c3c(C#N)cnn3c2)nnn1C1CCN(C#N)CC1 (single isomer, unassigned; isomer 1) [Example 79, 4-[1-(1,2-benzothiazol-7-yl)ethoxy]-6-[1-(1-cyano-4-piperidyl)-5-methyl-triazol-4-yl]pyrazolo[1,5-a]pyridine-3-carbonitrile, Isomer 1]	< 50 nM
Cc1c(-c2cc(OCC(O)c3ccc(F)cn3)c3c(Cl)cnn3c2)nnn1C1CCN(C#N)CC1 (single isomer, unassigned) [Example 155, 4-[4-[3-Chloro-4-[2-(5-fluoro-2-pyridyl)-2-hydroxy-ethoxy]pyrazolo[1,5-a]pyridin-6-yl]-5-methyl-triazol-1-yl]piperidine-1-carbonitrile]	< 50 nM
Cc1c(-c2cc(OC(CO)c3ccc(F)cn3)c3c(Cl)cnn3c2)nnn1C1CC(N2CCN(C#N)CC2)C1 (single isomer, unassigned) [Example 152, Cis-4-[3-[4-[3-Chloro-4-[1-(5-fluoro-2-pyridyl)-2-hydroxy-ethoxy]pyrazolo[1,5-a]pyridin-6-yl]-5-methyl-triazol-1-yl]cyclobutyl] piperazine-1-carbonitrile]	< 50 nM
Cc1c(-c2cc(OC(C)c3cc(Cl)cnn3)c3c(C#N)cnn3c2)nnn1C1CCN(C#N)CC1 (single isomer, unassigned; isomer 1) [Example 68, 4-[1-(5-Chloropyridazin-3-yl)ethoxy]-6-[1-(1-cyano-4-piperidyl)-5-methyl-triazol-4-yl]pyrazolo[1,5-a]pyridine-3-carbonitrile, Isomer 1]	< 50 nM
Cc1c(-c2cc(N[C@H](C)c3ccccn3)c3c(C#N)cnn3c2)cnn1C1CCN(C2CN(C#N)C2(C)C)CC1 (single isomer, unassigned) [Example 94]	< 50 nM

More lines, now with the values ahead:

IC50	SMILES
< 50 nM	Cc1c(-c2cc(O[C@H](C)c3ccccn3)n3c(C#N)cnc3c2)cnn1C1CN(C2CC3CCC2N3C#N)C1 (stereo partly drawn) [Example 226, 7-[1-[1-(7-Cyano-7-azabicyclo[2.2.1]heptan-2-yl)azetidin-3-yl]-5-methyl-pyrazol-4-yl]-5-[(1R)-1-(2-pyridyl)ethoxy]imidazo [1,2-a]pyridine-3-carbonitrile]
< 50 nM	COc1cc(-c2cnn(C3CCN(C4CN(C#N)C4)CC3)c2C)cn2ncc(C#N)c12 [Example 228, 3-[4-(4-[3-Cyano-4-methoxypyrazolo[1,5-a]pyridin-6-yl]-5-methylpyrazol-1-yl)piperidin-1-yl]azetidine-1-carbonitrile]
< 100 nM	Cc1c(-c2cc(O[C@H](C)c3nncn3CC(F)(F)F)n3c(C#N)cnc3c2)nnn1C1CCN(C#N)CC1 [Example 274, 7-[1-(1-Cyano-4-piperidyl)-5-methyl-triazol-4-yl]-5-[(1R)-1-[4-(2,2,2-trifluoroethyl)-1,2,4-triazol-3-yl]ethoxy]imidazo [1,2-a]pyridine-3-carbonitrile]
< 100 nM	COc1cc(-c2cnn(C3CN(C4CC5CC(C4)N(C#N)C5)C3)c2C)cn2ncc(C#N)c12 (stereo not drawn) [Example 225, 6-(1-(1-(6-cyano-6-azabicyclo[3.2.1]octan-3-yl)azetidin-3-yl)-5-methyl-1H-pyrazol-4-yl)-4-methoxypyrazolo[1,5-a]pyridine-3-carbonitrile]
< 50 nM	Cc1c(-c2cc(O[C@H](C)c3ccc(F)cn3)n3c(C#N)cnc3c2)nnn1C1CCN(C#N)CC1 [Example 170, 4-(4-[3-Cyano-5-[(1R)-1-(5-fluoropyridin-2-yl)ethoxy]imidazo[1,2-a]pyridin-7-yl]-5-methyl-1,2,3-triazol-1-yl)piperidine-1-carbonitrile]
< 50 nM	COc1cc(-c2cnn(C3CN([C@H]4CCCN(C#N)C4)C3)c2C)cn2ncc(C#N)c12 [Example 215, (3S)-3-[3-(4-[3-Cyano-4-methoxypyrazolo[1,5-a]pyridin-6-yl]-5-methylpyrazol-1-yl)azetidin-1-yl]piperidine-1-carbonitrile]
< 50 nM	Cc1c(-c2cc(O[C@H](C)c3ccn(C)n3)c3c(C#N)cnn3c2)nnn1C1CCN(C#N)CC1 [Example 292, 6-[1-(1-Cyano-4-piperidyl)-5-methyl-triazol-4-yl]-4-[(1R)-1-(1-methylpyrazol-3-yl)ethoxy]pyrazolo [1,5-a]pyridine-3-carbonitrile]
< 50 nM	COc1cc(-c2cnn([C@H]3C[C@H]4CC[C@@H](C3)N4C#N)c2C)cn2ncc(C#N)c12 [Example 183, 6-(1-((1R,3r,5S)-8-Cyano-8-azabicyclo[3.2.1]octan-3-yl)-5-methyl-1H-pyrazol-4-yl)-4-methoxypyrazolo[1,5-a]pyridine-3-carbonitrile]
< 50 nM	Cc1c(-c2cc(O[C@H](C)c3ccc(F)cn3)n3c(C#N)cnc3c2)cnn1C1CCN(C#N)CC1 [Example 209]
< 50 nM	Cc1c(-c2cc(O[C@H](C)c3ccccn3)n3c(C#N)cnc3c2)nnn1C1CCCN(C#N)CC1 (stereo partly drawn) [Example 257, 7-[1-(1-Cyanoazepan-4-yl)-5-methyl-triazol-4-yl]-5-[(1R)-1-(2-pyridyl)ethoxy] imidazo[1,2-a]pyridine-3-carbonitrile]
< 50 nM	Cc1c(-c2cc(O[C@H](C)c3ccccn3)n3c(C#N)cnc3c2)nnn1C1CC2(CCN(C#N)CC2)C1 [Example 212, 7-[1-(7-Cyano-7-azaspiro[3.5]nonan-2-yl)-5-methyl-triazol-4-yl]-5-[(1R)-1-(2-pyridyl)ethoxy]imidazo [1,2-a]pyridine-3-carbonitrile]
